# Laboratory results taken from patent US10072034B2, “Kinase inhibitors” (Respivert Limited, priority 2016, dated 2018).
# Assays:
# [1] = Microcentrifuge dissolution test 1): transfer from intestinal buffer (IB) to colonic buffer (CB); format: physicochemical; details: PBS pH 6.5, 37° C.
# [2] = as above; format: physicochemical; details: for Concentration, CB Timepoint 4 min: pH 7.2, 4 min; for Concentration, CB Timepoint 10 min: pH 7.2, 10 min; for Concentration, CB Timepoint 20 min: pH 7.2, 20 min; for Concentration, CB Timepoint 40 min: pH 7.2, 40 min; for Concentration, CB Timepoint 90 min: pH 7.2, 90 min; for Concentration, CB Timepoint 1,200 min: pH 7.2, 1,200 min; for Concentration, IB Timepoint −5 min / Concentration, IB Timepoint −15 min / Concentration, IB Timepoint −25 min: PBS pH 6.5, 37° C.; for Additional concentration, UCF Timepoint 90 min / Additional concentration, UCF Timepoint 1,200 min: after ultracentrifugation (free drug + drug in micelles); for Additional concentration, UCF Timepoint 90 min: CB pH 7.2, 90 min; for Additional concentration, UCF Timepoint 1,200 min: CB pH 7.2, 1,200 min
# Method: (§1) In vitro non-sink dissolution performance of the Compound of Example 3 was evaluated alongside Reference Compounds A and B employing microcentrifuge dissolution tests in which samples were either 1) transferred from intestinal buffer (IB) to colonic buffer (CB) or 2) dosed directly into intestinal media containing simulated bile-salt micelles (IB-SIF). Dissolution performance of the compounds at various timepoints was determined by centrifugation and analysis of the supernatant concentrations by off-line reverse-phase HPLC analysis.
# Test compounds (0.45 mg±0.05 mg) were weighed into a microcentrifuge tube, then 0.900 mL of IB receptor solution—phosphate buffered saline (PBS) warmed to 37° C. at pH 6.5—was added. A timer was started and the sample tubes were vortexed at the maximum setting for 1 minute. When the timer read 3, 13 and 23 min—corresponding to the 25, 15 and 5 min timepoints, respectively—the sample tubes were centrifuged for 1 min at 15,800 Relative Centrifugal Force (RCF). At each timepoint, a portion of the supernatant (50 μL) was added to diluent {250 μL of 75/25 THF/Water (v/v)} and the compound concentrations were measured by off-line HPLC analysis (Table 6a). After a further 5 min, 0.900 mL of CB receptor solution—pH 10.7 PBS solution—was added, such that the pH was adjusted to 7.2, and the timer was reset to 0 min. When the timer read 2, 8, 18, 38, 88 and 1,198 min—corresponding to the 4, 10, 20, 40, 90 and 1,200 min timepoints, respectively—the sample tubes were centrifuged for 1 min at 15,800 RCF. At each timepoint, a portion of the supernatant (50 μL) was added to diluent {250 μL of 75/25 THF/Water (v/v)} and the compound concentrations were measured by off-line HPLC analysis (Table 6a). The HPLC samples for the 90 and 1,200 min timepoints were additionally centrifuged for 8 min at 80,000 rpm at 37° C. in an ultracentrifuge (UCF), then the supernatant (50 μL) was added to diluent {250 μL of 75/25 THF/Water (v/v)} and the compound concentrations were measured by off-line HPLC analysis (Table 6b) to determine the concentration of free drug+drug in micelles.
# [3] = Microcentrifuge dissolution test 2): direct dosing into intestinal media containing simulated bile-salt micelles (IB-SIF); format: physicochemical; details: for Concentration, IB Timepoint 0 min / Concentration, IB Timepoint 4 min / Concentration, IB Timepoint 10 min / Concentration, IB Timepoint 20 min / Concentration, IB Timepoint 40 min / Concentration, IB Timepoint 90 min / Concentration, IB Timepoint 1,200 min / Additional concentration, UCF Timepoint 90 min: IB-SIF; for Concentration, IB Timepoint 0 min: pH 6.5, 0 min; for Concentration, IB Timepoint 4 min: pH 6.5, 4 min; for Concentration, IB Timepoint 10 min: pH 6.5, 10 min; for Concentration, IB Timepoint 20 min: pH 6.5, 20 min; for Concentration, IB Timepoint 40 min: pH 6.5, 40 min; for Concentration, IB Timepoint 90 min: pH 6.5, 90 min; for Concentration, IB Timepoint 1,200 min: pH 6.5, 1,200 min; for Additional concentration, UCF Timepoint 90 min / Additional concentration, UCF Timepoint 1,200 min: after ultracentrifugation (free drug + drug in micelles); for Additional concentration, UCF Timepoint 1,200 min: IB-SIF, 1,200 min
# Method: as §1
# Test compounds (0.45 mg±0.05 mg) were weighed into a microcentrifuge tube then 1.800 mL of IB-SIF receptor solution—prepared previously by dissolution of 0.250 g SIF powder (Biorelevant.com) in 50 mL of pH 6.5 PBS warmed to 37° C.—was added. A timer was started and the sample tubes were vortexed at the maximum setting for 1 minute. When the timer read 2, 8, 18, 38, 88 and 1,198 min—corresponding to the 4, 10, 20, 40, 90 and 1,200 min timepoints, respectively—the sample tubes were centrifuged for 1 min at 15,800 RCF. Then, at each timepoint, the supernatant (50 μL) was added to diluent {250 μL of 75/25 THF/Water (v/v)} and the compound concentrations were measured by off-line HPLC analysis (Table 7a). To determine the concentration of free drug+drug in micelles, the HPLC samples for the 90 and 1,200 min timepoints were additionally centrifuged for 8 min at 80,000 rpm at 37° C. in an ultracentrifuge (UCF), then the supernatant (50 μL) was added to diluent {250 PL of 75/25 THF/Water (v/v)} and the compound concentrations were measured by off-line HPLC analysis (Table 7b).
# [4] = test system: SCID mice injected with CD45RBhigh cells; experiment: Adoptive transfer in mice (T cell driven model of colonic inflammation; assay (v)); format: in vivo; details: for % Inhibition (of induction window between naïve and vehicle animals, colon weight:length) / Colon weight:length: 3 mg/kg BID oral gavage, day 14 to day 49 (Reference Compound A lowered to 0.6 mg/kg on day 27)
# Method: On Study day 0, female Balb/C mice are terminated and spleens obtained for CD45RB^high cell isolation (Using SCID IBD cell Separation protocol). Approximately 4×10^5 cells/mL CD45RB^high cells are then injected intraperitoneally (100 μL/mouse) into female SCID animals. On study day 14, mice are weighed and random/zed into treatment groups based on body weight. On Day 14, compounds are administered BID, via oral gavage, in 5% polyoxyethylene 40 stearate in 20 mM pH 7.8 aqueous phosphate buffer in a dose volume of 5 mL/kg. Treatment continues until study day 49, at which point the animals are necropsied 4 hours after the morning administration. The colon length and weight are recorded and used as a secondary endpoint in the study as a measurement of colon oedema. The colon is then divided into six cross-sections, four of which are used for histopathology scoring (primary endpoint) and two are homogenised for cytokine analysis. Data shown is the % inhibition of the induction window between naïve animals and vehicle animals, where higher inhibition implies closer to the non-diseased, naïve, phenotype.
Compound,"Concentration, IB Timepoint −30 min [1] [ng/mL]","Concentration, CB Timepoint 4 min [2] [ng/mL]","Concentration, CB Timepoint 10 min [2] [ng/mL]","Concentration, CB Timepoint 20 min [2] [ng/mL]","Concentration, CB Timepoint 40 min [2] [ng/mL]","Concentration, CB Timepoint 90 min [2] [ng/mL]","Concentration, CB Timepoint 1,200 min [2] [ng/mL]","Concentration, IB Timepoint −5 min [2] [ng/mL]","Concentration, IB Timepoint −15 min [2] [ng/mL]","Concentration, IB Timepoint −25 min [2] [ng/mL]","Additional concentration, UCF Timepoint 90 min [2] [µg/mL]","Additional concentration, UCF Timepoint 1,200 min [2] [µg/mL]","Concentration, IB Timepoint 0 min [3] [ng/mL]","Concentration, IB Timepoint 4 min [3] [ng/mL]","Concentration, IB Timepoint 10 min [3] [ng/mL]","Concentration, IB Timepoint 20 min [3] [ng/mL]","Concentration, IB Timepoint 40 min [3] [ng/mL]","Concentration, IB Timepoint 90 min [3] [ng/mL]","Concentration, IB Timepoint 1,200 min [3] [ng/mL]","Additional concentration, UCF Timepoint 90 min [3] [µg/mL]",further results
"C#Cc1cc(Nc2nccc(Oc3ccc(NC(=O)Nc4cc(C(C)(C)C)nn4-c4ccc(C)cc4)c4ccccc34)n2)cc(C(=O)NCCOCCOCCOC)c1 [Reference Compound B, 3-((4-((4-(3-(3-(tert-butyl)-1-(p-tolyl)-1H-pyrazol-5-yl)ureido)naphthalen-1-yl)oxy)pyrimidin-2-yl)amino)-5-ethynyl-N-(2-(2-(2-methoxyethoxy)ethoxy)ethyl)benzamide]",0,5000,1900,900,600,0,4900,2200,1000,1900,0.0,1.6,0,1100,900,1300,1000,700,3000,0.7,"Additional concentration, UCF Timepoint 1,200 min [3]: 2.9 µg/mL; % Inhibition (of induction window between naïve and vehicle animals, colon weight:length) [4]: 11%; Colon weight:length [4]: 0.041 ± 0.005"
COc1cc(Nc2cc(Oc3ccc(NC(=O)Nc4cc(C(C)(C)C)cc(NS(C)(=O)=O)c4OC)c4ccccc34)ccn2)cc(OCCOCCOCC(=O)O)c1 [Example 3],0,9300,9100,14300,48300,60700,85400,8500,7500,5300,34.1,74.9,0,255700,255900,251700,249200,253500,239000,229.4,"Additional concentration, UCF Timepoint 1,200 min [3]: 169.9 µg/mL; % Inhibition (of induction window between naïve and vehicle animals, colon weight:length) [4]: 49%; Colon weight:length [4]: 0.032 ± 0.004; Activity compared to the two Reference Compounds (colon weight to length ratio) ([4]; simple aqueous-based vehicle): superior activity"
"COc1cc(Nc2nccc(Oc3ccc(NC(=O)Nc4cc(C(C)(C)C)cc(NS(C)(=O)=O)c4OC)c4ccccc34)n2)cc(OCCOCCOCCC(=O)O)c1 [Reference Compound A, 3-(2-(2-(3-((4-((4-(3-(5-(tert-butyl)-2-methoxy-3-(methylsulfonamido)phenyl)ureido)naphthalen-1-yl)oxy)-pyrimidin-2-yl)amino)-5-methoxyphenoxy)ethoxy)ethoxy)propanoic acid]",0,11400,11500,10700,10700,8400,7900,5300,4600,2900,5.1,3.9,0,39800,63400,83500,96500,99900,101000,87.0,"Additional concentration, UCF Timepoint 1,200 min [3]: 88.8 µg/mL; % Inhibition (of induction window between naïve and vehicle animals, colon weight:length) [4]: −14%; Colon weight:length [4]: 0.047 ± 0.007"
